Consider 3 molecules from patent US6696478B2, “Cancer treatment with Gö6976 and its related compounds” (priority 1999, dated 2004).

Data set [1] concerns DU145 human prostate cancer cells. Put plainly: Cell viability assay (trypan blue), prostate cancer cells, second set. The data set is classed as cell-based. The note with it: approximately 5×10^5 cells seeded, seven days after treatment. Here is the method:
DU145 human prostate cancer cells,
(§1) These cells were maintained in Dulbecco's modified Eagle medium (DMEM) supplemented with 10 percent bovine calf serum.
(§2) Cells were seeded for 24 hours. Then they were either treated with Gö6976, C-o 002, or C-o 003, or left untreated. The cells were then collected periodically and evaluated using trypan blue dye exclusion to asses viability using the method described by CY Chen, et al, in J.Biol. Chem. 273:16700-16709.
(§3) Two sets of approximately 5×10^5 DU145 prostate cancer cells, HepG2 liver cancer cells, AGS gastric cancer cells, and T84 colorectal cancers were seeded and 24 hours later one of the sets were treated with 2 μm Gö6976. Seven days after treatment, viable cells were counted.
(§4) Two sets of approximately 5×10^5 human MDA-MB-468 breast cancer cells, DU145 human prostate cancer cells, A549 lung cancer cells, AGS gastric cancer cells, and T84 colorectal cancer cells were seeded and treated with 14 μm C-o 002 and C-o 003 24 hours later. Seven days after treatment, viable cells were counted.

Data set [2] concerns AGS human gastric cancer cells. The data set is described as follows: Cell viability assay (trypan blue), gastric cancer cells, second set. The data set is classed as cell-based. The note with it: approximately 5×10^5 cells seeded, seven days after treatment. The procedure: AGS human gastric cancer cells,
as §1, §2, §3, §4

The subject of data set [3] is HepG2 human liver cancer cells. Put plainly: Cell viability assay (trypan blue), liver cancer cells, second set. To be noted: seven days after treatment. The data set is classed as cell-based. The procedure:
HepG2 human liver cancer cells,
as §1, §2, §3, §4

The subject of data set [4] is T84 human colorectal cancer cells. Put plainly: Cell viability assay (trypan blue), colorectal cancer cells, second set. The data set is classed as cell-based. The note with it: approximately 5×10^5 cells seeded, seven days after treatment. Here is the method:
T84 human colorectal cancer cells,
as §1, §2, §3, §4

Data set [5] concerns MDA-MB-468 human breast cancer cells. The data set is described as follows: Cell viability assay (trypan blue), breast cancer cells, second set. The data set is classed as cell-based. To be noted: 14 μm compound; approximately 5×10^5 cells seeded; seven days after treatment. The procedure:
MDA-MB-468 human breast cancer cells
as §1, §2, §4

Data set [6] has as its system A549 human lung cancer cells. Put plainly: Cell viability assay (trypan blue), lung cancer cells, second set. It counts as cell-based. To be noted: 14 μm compound; approximately 5×10^5 cells seeded; seven days after treatment. The procedure:
A549 human lung cancer cells,
as §1, §2, §4

The test system of data set [7] is human breast cancer cells (MDA-MB-468 and MDA-MB-453). Put plainly: Cell viability assay (trypan blue dye exclusion), breast cancer cells, first set. The data set is classed as cell-based. To be noted: for viable cell count: about 5×10^5 cells at start, counted at day 4 (FIG. 2). The procedure:
MDA-MB-468 human breast cancer cells,
MDA-MB-453 human breast cancer cells,
as §1
(§5) Cells were seeded for 24 hours. Then they were either treated with Gö6976 or left untreated. The cells were then collected periodically and evaluated using trypan blue dye exclusion to asses viability using the method described by CY Chen, et al, in J.Biol. Chem. 273:16700-16709.
In both FIG. 2 and FIG. 3 error bars indicated the estimated standard error based on three independent experiments.

The test system of data set [8] is HL60 human acute promyelocytic leukemia cells. Put plainly: Cell viability assay (trypan blue), leukemia cells. The data set is classed as cell-based. To be noted: 2 micromoles Gö6976; 5×10^5 cells at start; after four days (FIG. 4). The procedure:
HL60 human acute promyelocytic leukemia cells were grown in RPMI 1640 medium containing 10 percent heat-inactivated fetal bovine serum (FBS).
as §5
One of two samples of 5×10^5 cells was treated with 2 micromoles of Gö6976 and the viable cells were counted after four days. At four days the cells in the untreated sample had grown by a factor of nearly 10 to almost 5×10^6 cells whereas viable cells in the treated sample was less than 0.2×10^5.

Data set [9] has as its system Small cell lung cancer cells (NCI-H048). Put plainly: Cell viability assay (trypan blue), small cell lung cancer cells. The data set is classed as cell-based. The note with it: treated with Gö6976 (concentration not given); about 5×10^5 cells at start; day 4 (FIG. 5). The procedure:
Small cell lung cancer cells (NCI-H048),
(§6) Small cell lung cancer cells were grown in RPMI 1640 medium with 2 mM L-glutamine adjusted to contain 1.5 g/L sodium bicarbonate, 4.5 g/L glucose, 10 mM HEPES, 1.0 mM sodium pyruvate, and 5% fetal bovine serum. Non-small cell lung cancer cells were grown in RPMI 1640 medium supplemented with 5% fetal bovine serum, 5 ug/ml insulin, 10 ug/ml transferrin, 30 nM sodium selenite, 10 nM hydrocortisone, 10 nM beta-estradiol, 10 mM HEPES, and 2 mM L- glutamine.
as §5
(§7) Two samples each of about 5×10^5 cells small lung cancer cells and non-small lung cancer cells were prepared and one sample of each type was treated with Gö6976 and the viable cells were counted at day 4. In the untreated samples the cancer cells had multiplied by almost a factor of 10 and in the treated samples the count had decreased to less than 0.5 of the original count.

The test system of data set [10] is Non-small cell lung cancer cells (NCI-H2342). Put plainly: Cell viability assay (trypan blue), non-small cell lung cancer cells. It counts as cell-based. The note with it: treated with Gö6976 (concentration not given); about 5×10^5 cells at start; day 4 (FIG. 5). Here is the method: Non-small cell lung cancer cells (NCI-H2342).
as §6, §5, §7

The test system of data set [11] is U-2 OS human osteosacoma cells. Put plainly: Cell viability assay (trypan blue), osteosarcoma cells. It counts as cell-based. To be noted: 2 micromoles Gö6976; about 5×10^5 cells at start; after four days (FIG. 6). Here is the method: U-2 OS human osteosacoma cells,
as §1, §5
One of two samples of about 5×10^5 cells was treated with 2 micromoles of Gö6976 and the viable cells were counted after four days.

Data set [12] concerns A431 human epidermoid carcinoma cells. Put plainly: Cell viability assay (trypan blue), epidermoid carcinoma cells. It counts as cell-based. To be noted: 2 micromoles Gö6976; about 5×10^5 cells at start; at four days; untreated grew by a factor of about 24 (FIG. 7). The procedure: A431 human epidermoid carcinoma cells,
as §1, §5
One of two samples of about 5×10^5 cells was treated with 2 micromoles of Gö6976 and the viable cells were counted each 24 hours for four days.

Data set [13] relates to 3Y1 cells overexpressing EGF receptors. The data set is described as follows: EGF-induced cell transformation (morphology). The data set is classed as cell-based, rat.
Source text: (§8) 3Y1 rat fibroblast cells overexpressing the epidermal growth factor receptor (EGFR).
as §1

Data set [14] has the same test system. Put plainly: Anchorage-independent cell growth in soft agar (EGF-induced colony formation). The note with it: 100 ng/ml EGF and 250 nanamoles Gö6976; three weeks in soft agar (FIG. 8). It counts as cell-based, rat.
Source text: as §8
For growth of these cells in soft agar, 1×10^3 cells were suspended in top agar (consisting of 20 percent calf serum, 0.38 percent agar and the remainder DMEM) and overlaid onto hardened bottom agar (DMEM, 20 percent calf serum and 0.7 percent agar) as reported by Sementchenko et al, in Onocgen 17:2883-2888.
The effect of Gö6976 on blocking EGF-induced cell transformation was further confirmed by checking anchorage-independent cell growth. […] One sample was left untreated, one was treated with 100 ng/ml of EGF, one sample was treated with 100 ng/ml of EGF and 250 nanamoles of Gö6976 and one sample was treated with 250 nanaomoles of Gö6976. In each case the percentage of cell forming colonies were determined three weeks after suspending the cells in soft agar.

For data set [15], the system named is normal cells including rat 3Y1 fibroblast. The data set is described as follows: Toxic effects on normal cells. The data set is classed as cell-based. The source says:
Toxic effects begin to show up at concentrations of about 5 micromoles in these types of cells.

For the next data set, the system named is C6 glioma cells. The data set is described as follows: Cell growth, brain tumor cells, second set. It counts as cell-based. To be noted: 2 μm Gö6976 for 7 days; approximately 5×10^5 cells seeded (FIG. 10). The procedure: as §1, §2
(§9) Two sets of approximately 5×10^5 C6 glioma cells and Hela cervical cancer cells were seeded and treated or untreated with 2 μm Gö6976 for 7 days.

The test system of data set [16] is Hela human cervical cancer cells. Put plainly: Cell growth, cervical cancer cells, second set. It counts as cell-based. To be noted: 2 μm Gö6976 for 7 days; approximately 5×10^5 cells seeded (FIG. 10). The procedure:
Hela human cervical cancer cells
as §1, §2, §9

For the next data set, the system named is PKC α. The note with it: cited from earlier work.

Take `Cl.NCCCn1c2ccccc2c2c3c(c4c5ccccc5[nH]c4c21)CNC3` [C-o 003, 12-(3-Aminopropyl)-5,6,7,12,13-pentahydro-indolo[2,3,-a] pyrrolo [3,4-c] carbazole hydrochloride]: the viable cells counted is 0 in data set [1] (14 μm compound); 0 in data set [2] (14 μm compound); 0 in data set [3] (14 μm compound); 2.7 × 10^4 in data set [4] (14 μm compound); 0 in [5]; 8.5 × 10^5 in data set [6].

Take `Cn1c2ccccc2c2c3c(c4c5ccccc5n(CCC#N)c4c21)CNC3=O` [Gö6976, 12-(2-Cyanoethyl)-6,7,12,13-tetrahydro-13-methyl-5-oxo-5H-indolo[2,3-a]pyrrolo[3,4-c]carbazole]: the figures for the viable cell count entry in [7] (1 micromole Gö6976) and in [7] (2.0 micromolar Gö6976) were “about 1×10^5” and “less than 0.3×10^5”, respectively. In addition, the “viable cell concentration over time” value in data set [7] (2.0 micromoles Gö6976, measured at 24 hours intervals for 4 days (FIG. 3)) is reported as “reduced by approximately half each 24 hours”. Also, the “viable cells in the treated sample” value in data set [8] was “less than 0.2×10^5”. For the same molecule, the “viable cell count relative to the original count” value in [9] and in data set [10] was “less than 0.5” in each case. In addition, the “viable cells in the treated sample relative to the original count” value was “reduced to about half the original count” in data set [11] and “approximately doubled” in data set [12]. Besides, the “toxic effect on 3Y1 EGFR cells” value in data set [13] (Gö6976 alone) is “did not show any toxic effect”. Moreover, the “EGF-induced cell transformation (transformed morphology)” value in [13] (co-treatment with 250 nanamoles Gö6976 and 100 ng/ml EGF, 24 hours) is given as “completely blocked”. Further, the “colony forming efficiency of EGF (percentage of cell forming colonies)” value in data set [14] is on record as “greatly reduced”. The “toxic effects on normal cells” value in data set [15] (concentrations used in the first set of experiments) is reported as “no significant toxic effects”. Further, the “concentration at which toxic effects begin to show up” value in [15] (normal cells) was “about 5 micromoles”. For the same molecule, the viable cells counted is 0 in data set [1] (2 μm Gö6976); 0 in data set [2] (2 μm Gö6976); 0 in [3] (2 μm Gö6976, approximately 5×10^5 cells seeded); 1.1 × 10^4 in data set [4] (2 μm Gö6976). The cell growth result (in the data set on C6 glioma cells; in data set [16]) was “significant inhibited the growth” in each case. For the same molecule, the “TPA-induced downregulation of PKC α” value in the data set with PKC α was “prevented TPA-induced downregulation”.

Regarding `NCCCn1c2ccccc2c2c3c(c4c5ccccc5[nH]c4c21)CNC3` [C-o 002, 12-(3-Aminopropyl)-5,6,7,12,13-pentahydro-indolo[2,3,-a] pyrrolo [3,4-c] carbazole], the viable cells counted is given as 0 in data set [1] (14 μm compound); 0 in [2] (14 μm compound); 0 in [3] (14 μm compound); 1.9 × 10^4 in data set [4] (14 μm compound); 0 in [5]; 7 × 10^5 in data set [6].
